Source: ChEMBL document CHEMBL4033707, “Discovery of a novel aminopyrazine series as selective PI3Kα inhibitors” (Bioorg Med Chem Lett, 2017)
In brackets after ≈: the same amount, converted by molar mass. One block for each compound: values may come before it. Activity calls are given as the source filed them. The rule behind the calls is not given here.

What was measured:
[1] = Inhibition of PI3Kalpha mutant in human BT474 cells assessed as reduction in AKT phosphorylation at Thr308; type: cell-based; conditions: BT-474
[2] = molecular target: T1, Phosphatidylinositol 4,5-bisphosphate 3-kinase catalytic subunit beta isoform (Homo sapiens, UniProt P42338); experiment: Inhibition of PI3Kbeta in PTEN-deficient human MDA-MB-468 cells assessed as reduction in AKT phosphorylation at Ser473
[3] = molecular target: Phosphatidylinositol 4,5-bisphosphate 3-kinase catalytic subunit alpha isoform (Homo sapiens, UniProt P42336); experiment: Inhibition of PI3Kalpha (unknown origin)
[4] = molecular target: T1, Phosphatidylinositol 4,5-bisphosphate 3-kinase catalytic subunit beta isoform; experiment: Inhibition of PI3Kbeta (unknown origin)
[5] = molecular target: Sphingosine kinase 2 (Homo sapiens) (UniProt Q9NRA0); experiment: Inhibition of human SPHK 2 (1 to 654 residues) at 50 uM by ADP Glo HTS assay
[6] = molecular target: T2, Phosphatidylinositol 4,5-bisphosphate 3-kinase catalytic subunit gamma isoform (Homo sapiens, UniProt P48736); experiment: Inhibition of PI3Kgamma (unknown origin)
[7] = Oral bioavailability in Beagle dog at 1 umol/kg; type: ADME, organism-based, Canis lupus familiaris; conditions: in vivo
[8] = molecular target: Phosphatidylinositol 3-kinase regulatory subunit alpha (Homo sapiens) (UniProt P27986); experiment: Inhibition of human PI3K p85alpha (1 to 724 residues) at 50 uM by ADP Glo HTS assay
[9] = molecular target: Diacylglycerol kinase gamma (Homo sapiens) (UniProt P49619); experiment: Inhibition of human DGKgamma (1 to 752 residues) at 50 uM by ADP Glo HTS assay
[10] = Clearance in Han Wistar rat at 4 umol/kg, iv or 10 umol/kg, po; type: ADME, organism-based; conditions: in vivo
[11] = Octanol-buffer partition coefficient, log D of the compound at pH 7.4 by shake-flask method; type: physicochemical
[12] = molecular target: Serine/threonine-protein kinase mTOR (Homo sapiens, UniProt P42345); experiment: Inhibition of m-TOR (unknown origin)
[13] = Oral bioavailability in Han Wistar rat at 10 umol/kg; type: ADME, organism-based; conditions: in vivo
[14] = Aqueous solubility of the compound in phosphate buffer at pH 7.4 using crystalline sample; type: physicochemical
[15] = molecular target: Phosphatidylinositol 4,5-bisphosphate 3-kinase catalytic subunit delta isoform (Homo sapiens, UniProt O00329); experiment: Inhibition of PI3Kdelta (unknown origin)
[16] = test system: Phosphatidylinositol 4,5-bisphosphate 3-kinase catalytic subunit alpha isoform (Homo sapiens), P42336 [E545K]; experiment: Inhibition of human PI3Kalpha (2 to 1068 residues)/p85 (1 to 724 residues) E545K mutant at 50 uM by ADP Glo HTS assay
[17] = test system: MCF7; experiment: Anti-tumor activity against human MCF7 cells harboring PI3KCA E545K mutant xenografted in Swiss nu/nu mouse assessed as tumor growth inhibition at 25 mg/kg, po administered twice daily for 21 days measured post last dose relative to control; type: functional; conditions: 504 h, read-out: TGI
[18] = Dissociation constant, pKa of the compound; type: physicochemical
[19] = test system: MCF7; experiment: Anti-tumor activity against human MCF7 cells harboring PI3KCA E545K mutant xenografted in Swiss nu/nu mouse assessed as tumor growth inhibition at 10 mg/kg, po administered twice daily for 21 days measured post last dose relative to control; type: functional; conditions: 504 h, read-out: TGI
[20] = molecular target: Phosphoinositide 3-kinase regulatory subunit 4 (Homo sapiens, UniProt Q99570); experiment: Inhibition of VPS15 (unknown origin)
[21] = molecular target: Diacylglycerol kinase zeta (Homo sapiens) (UniProt Q13574); experiment: Inhibition of human DGKzeta (1 to 929 residues) at 50 uM by ADP Glo HTS assay
[22] = molecular target: Choline/ethanolamine kinase (Homo sapiens) (UniProt Q9Y259); experiment: Inhibition of human CHKbeta (1 to 395 residues) at 50 uM by ADP Glo HTS assay
[23] = test system: Phosphatidylinositol 4,5-bisphosphate 3-kinase catalytic subunit alpha isoform (Homo sapiens), P42336 [E542K]; experiment: Inhibition of human PI3Kalpha (2 to 1068 residues)/p85 (1 to 724 residues) E542K mutant at 50 uM by ADP Glo HTS assay
[24] = Volume of distribution in Han Wistar rat at 4 umol/kg, iv or 10 umol/kg, po; type: ADME, organism-based; conditions: in vivo
[25] = molecular target: Phosphatidylinositol 4-kinase beta (Homo sapiens, UniProt Q9UBF8); experiment: Inhibition of human PI4KB (1 to 801 residues) by ADP Glo HTS assay
[26] = Apparent permeability of the compound across apical side to basolateral side in human Caco2 cells; type: ADME, cell-based; conditions: Caco-2
[27] = AUC in mouse at 100 mg/kg, po; type: ADME, organism-based; conditions: in vivo
[28] = molecular target: Sphingosine kinase 1 (Homo sapiens) (UniProt Q9NYA1); experiment: Inhibition of human SphK1 (1 to 384 residues) at 50 uM by […] HTS assay
[29] = molecular target: Choline kinase alpha (Homo sapiens) (UniProt P35790); experiment: Inhibition of human CHKalpha (1 to 457 residues) at 50 uM by ADP Glo HTS assay
[30] = test system: Canis familiaris; experiment: Volume of distribution in Beagle dog at 1 umol/kg, po; type: ADME, Canis lupus familiaris; conditions: in vivo
[31] = Cmax in mouse at 100 mg/kg, po; type: ADME, organism-based; design: dose 100 mg/kg, route oral; conditions: in vivo
[32] = test system: MCF7; experiment: Anti-tumor activity against human MCF7 cells harboring PI3KCA E545K mutant xenografted in Swiss nu/nu mouse assessed as tumor growth inhibition at 50 mg/kg, po administered twice daily for 21 days measured post last dose relative to control; type: functional; conditions: 504 h, read-out: TGI
[33] = molecular target: Phosphatidylinositol 3-kinase regulatory subunit beta (Homo sapiens) (UniProt O00459); experiment: Inhibition of human PI3K p85beta (1 to 724 residues) at 50 uM by ADP Glo HTS assay
[34] = Clearance in Beagle dog at 1 umol/kg, po; type: ADME, Canis lupus familiaris; conditions: in vivo
[35] = molecular target: T2, Phosphatidylinositol 4,5-bisphosphate 3-kinase catalytic subunit gamma isoform; experiment: Inhibition of human PI3Kgamma (2 to 1102 residues) at 50 uM by ADP Glo HTS assay
[36] = molecular target: Diacylglycerol kinase beta (Homo sapiens) (UniProt Q9Y6T7); experiment: Inhibition of human DGKbeta (1 to 804 residues) at 50 uM by ADP Glo HTS assay
[37] = Aqueous solubility of the compound in phosphate buffer at pH 7.4; type: physicochemical

T1 sequence (P42338 whole entry, canonical isoform): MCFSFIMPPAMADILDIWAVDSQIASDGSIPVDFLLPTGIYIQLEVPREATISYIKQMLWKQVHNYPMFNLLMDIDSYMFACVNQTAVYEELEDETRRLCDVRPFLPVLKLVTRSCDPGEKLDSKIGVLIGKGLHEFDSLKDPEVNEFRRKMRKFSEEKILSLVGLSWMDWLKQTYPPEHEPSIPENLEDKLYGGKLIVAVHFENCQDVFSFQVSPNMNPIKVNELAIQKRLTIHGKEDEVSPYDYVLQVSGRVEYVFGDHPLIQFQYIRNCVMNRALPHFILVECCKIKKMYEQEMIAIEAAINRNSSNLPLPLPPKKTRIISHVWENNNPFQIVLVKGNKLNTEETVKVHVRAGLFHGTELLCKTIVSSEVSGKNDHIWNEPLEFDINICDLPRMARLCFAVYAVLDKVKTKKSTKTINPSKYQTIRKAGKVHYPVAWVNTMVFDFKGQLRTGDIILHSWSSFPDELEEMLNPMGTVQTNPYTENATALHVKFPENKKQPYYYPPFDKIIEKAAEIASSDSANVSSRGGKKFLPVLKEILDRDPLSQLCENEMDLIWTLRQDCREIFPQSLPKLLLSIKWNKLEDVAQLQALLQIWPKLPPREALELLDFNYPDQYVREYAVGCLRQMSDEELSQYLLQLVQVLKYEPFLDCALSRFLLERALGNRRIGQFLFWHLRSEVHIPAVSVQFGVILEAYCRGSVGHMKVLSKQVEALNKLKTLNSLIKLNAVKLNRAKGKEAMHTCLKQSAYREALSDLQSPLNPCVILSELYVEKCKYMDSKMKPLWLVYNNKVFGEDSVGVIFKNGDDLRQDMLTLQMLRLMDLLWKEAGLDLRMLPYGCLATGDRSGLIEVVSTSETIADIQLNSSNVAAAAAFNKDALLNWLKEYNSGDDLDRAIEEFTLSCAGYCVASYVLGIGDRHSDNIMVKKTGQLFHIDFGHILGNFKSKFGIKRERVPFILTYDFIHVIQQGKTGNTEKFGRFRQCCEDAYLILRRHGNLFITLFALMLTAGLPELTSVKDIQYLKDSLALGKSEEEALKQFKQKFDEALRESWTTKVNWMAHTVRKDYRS
Phosphatidylinositol 4,5-bisphosphate 3-kinase catalytic subunit alpha isoform, sequence (P42336 whole entry, canonical isoform): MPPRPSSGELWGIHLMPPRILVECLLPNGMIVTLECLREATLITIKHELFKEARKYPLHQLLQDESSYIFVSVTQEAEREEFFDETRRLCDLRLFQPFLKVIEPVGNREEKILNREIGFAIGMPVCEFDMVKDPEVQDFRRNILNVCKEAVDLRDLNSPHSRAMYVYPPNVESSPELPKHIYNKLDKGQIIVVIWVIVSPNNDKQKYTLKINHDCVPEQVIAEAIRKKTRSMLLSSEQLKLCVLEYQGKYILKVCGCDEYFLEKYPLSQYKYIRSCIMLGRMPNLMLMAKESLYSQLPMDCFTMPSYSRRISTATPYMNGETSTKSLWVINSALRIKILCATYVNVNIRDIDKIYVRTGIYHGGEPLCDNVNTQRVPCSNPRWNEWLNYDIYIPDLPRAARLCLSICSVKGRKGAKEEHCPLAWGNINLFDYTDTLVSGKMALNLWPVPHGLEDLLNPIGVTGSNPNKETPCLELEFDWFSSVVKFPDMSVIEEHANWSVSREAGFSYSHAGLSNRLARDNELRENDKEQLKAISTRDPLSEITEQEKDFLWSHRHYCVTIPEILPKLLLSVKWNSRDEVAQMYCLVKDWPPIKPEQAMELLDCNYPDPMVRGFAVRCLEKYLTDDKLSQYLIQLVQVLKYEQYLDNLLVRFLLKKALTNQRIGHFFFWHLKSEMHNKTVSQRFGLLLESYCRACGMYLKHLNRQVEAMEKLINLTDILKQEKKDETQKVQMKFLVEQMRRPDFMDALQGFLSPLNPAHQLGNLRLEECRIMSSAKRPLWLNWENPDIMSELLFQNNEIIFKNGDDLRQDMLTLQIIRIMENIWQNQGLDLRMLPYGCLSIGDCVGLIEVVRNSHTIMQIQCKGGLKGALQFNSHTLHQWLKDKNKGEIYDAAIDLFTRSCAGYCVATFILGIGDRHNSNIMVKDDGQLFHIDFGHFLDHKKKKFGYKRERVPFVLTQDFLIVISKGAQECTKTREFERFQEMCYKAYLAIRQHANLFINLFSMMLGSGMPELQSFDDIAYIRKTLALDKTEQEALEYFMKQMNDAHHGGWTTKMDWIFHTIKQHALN
Diacylglycerol kinase gamma (Homo sapiens), sequence (P49619 whole entry, the tested form may be a part): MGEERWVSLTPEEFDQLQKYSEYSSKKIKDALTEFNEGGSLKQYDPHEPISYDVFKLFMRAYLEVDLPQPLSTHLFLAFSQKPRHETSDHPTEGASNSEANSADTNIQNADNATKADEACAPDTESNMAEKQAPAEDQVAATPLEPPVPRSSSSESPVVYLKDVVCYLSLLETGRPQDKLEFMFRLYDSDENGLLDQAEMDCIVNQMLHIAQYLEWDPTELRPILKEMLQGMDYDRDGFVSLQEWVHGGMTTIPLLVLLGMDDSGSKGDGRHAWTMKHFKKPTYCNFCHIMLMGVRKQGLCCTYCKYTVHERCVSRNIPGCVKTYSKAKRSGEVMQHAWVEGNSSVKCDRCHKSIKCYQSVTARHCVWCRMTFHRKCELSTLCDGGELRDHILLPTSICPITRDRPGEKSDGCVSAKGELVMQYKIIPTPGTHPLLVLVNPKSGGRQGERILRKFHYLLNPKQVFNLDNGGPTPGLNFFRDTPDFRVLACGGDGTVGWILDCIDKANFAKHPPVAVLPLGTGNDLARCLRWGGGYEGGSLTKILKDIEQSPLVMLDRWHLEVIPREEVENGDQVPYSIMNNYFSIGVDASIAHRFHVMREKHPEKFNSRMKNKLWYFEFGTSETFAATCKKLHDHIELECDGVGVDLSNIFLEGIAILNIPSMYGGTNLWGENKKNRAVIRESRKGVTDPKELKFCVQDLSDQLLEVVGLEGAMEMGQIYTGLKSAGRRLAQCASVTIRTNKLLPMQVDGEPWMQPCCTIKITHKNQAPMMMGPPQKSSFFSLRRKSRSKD
Sphingosine kinase 1 (Homo sapiens), sequence (Q9NYA1 whole entry, the tested form may be a part): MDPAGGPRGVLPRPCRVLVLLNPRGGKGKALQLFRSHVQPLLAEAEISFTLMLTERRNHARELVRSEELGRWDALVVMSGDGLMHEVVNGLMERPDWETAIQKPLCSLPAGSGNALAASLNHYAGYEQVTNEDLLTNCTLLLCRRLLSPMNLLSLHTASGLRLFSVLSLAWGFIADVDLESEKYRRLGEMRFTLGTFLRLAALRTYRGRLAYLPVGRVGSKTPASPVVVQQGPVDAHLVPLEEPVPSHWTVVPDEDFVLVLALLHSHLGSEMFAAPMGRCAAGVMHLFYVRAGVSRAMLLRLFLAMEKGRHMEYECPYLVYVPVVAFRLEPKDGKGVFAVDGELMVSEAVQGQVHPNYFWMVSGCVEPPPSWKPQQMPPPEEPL
Sphingosine kinase 2 (Homo sapiens), sequence (Q9NRA0 whole entry, the tested form may be a part, canonical isoform): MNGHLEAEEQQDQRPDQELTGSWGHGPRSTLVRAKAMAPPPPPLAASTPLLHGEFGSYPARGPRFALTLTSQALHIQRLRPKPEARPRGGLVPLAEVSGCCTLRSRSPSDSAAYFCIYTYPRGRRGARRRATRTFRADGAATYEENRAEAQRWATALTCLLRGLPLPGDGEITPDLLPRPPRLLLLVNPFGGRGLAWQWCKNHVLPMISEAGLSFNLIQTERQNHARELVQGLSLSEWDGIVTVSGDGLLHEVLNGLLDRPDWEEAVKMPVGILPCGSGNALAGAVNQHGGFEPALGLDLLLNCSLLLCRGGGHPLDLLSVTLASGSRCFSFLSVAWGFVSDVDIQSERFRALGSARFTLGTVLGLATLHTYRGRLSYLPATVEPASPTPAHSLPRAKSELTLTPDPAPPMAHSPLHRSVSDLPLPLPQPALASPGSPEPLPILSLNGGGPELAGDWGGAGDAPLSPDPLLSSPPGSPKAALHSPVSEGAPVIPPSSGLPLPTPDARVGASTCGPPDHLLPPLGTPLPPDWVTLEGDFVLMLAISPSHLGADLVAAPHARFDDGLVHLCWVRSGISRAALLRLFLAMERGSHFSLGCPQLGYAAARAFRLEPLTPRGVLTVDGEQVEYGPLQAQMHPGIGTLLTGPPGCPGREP
Phosphatidylinositol 4,5-bisphosphate 3-kinase catalytic subunit alpha isoform (Homo sapiens), P42336 [E542K], sequence (P42336 whole entry E542K, the tested form may be a part, canonical isoform): as the sequence (P42336 whole entry, canonical isoform) above, with E542K counted along it

Compound: Cc1nc(N)c(-c2nc(C(=O)NCCN(C)C)nn2C)nc1-c1cnn2ccccc12
IC50 [1]: 6 nM
IC50 [2]: 1500 nM

Compound: CNC(=O)c1nc(-c2nc(-c3cnc4ccccn34)cnc2N)n(C)n1
IC50 [1]: 380 nM
IC50 [3]: 20 nM
IC50 [4]: 1300 nM
IC50 [2]: 21000 nM

Compound: CNC(=O)c1nc(-c2nc(-c3cnc4ccccn34)c(C)nc2N)n(C)n1
inhibition [5]: inactive
IC50 [6]: 43 nM
bioavailability [7]: 60%
inhibition [8]: inactive
inhibition [9]: inactive
clearance [10]: 11 mL/min/kg
logD [11]: 1.8
IC50 [12]: 29000 nM
IC50 [1]: 87 nM
bioavailability [13]: 46%
solubility thermodynamic [14]: 26 µM (≈ 9.45 µg/mL)
IC50 [15]: 16 nM
inhibition [16]: inactive
inhibition in vivo at 25 mg/kg [17]: 44%
pKa [18]: 6.2
inhibition in vivo at 10 mg/kg [19]: 29%
IC50 [3]: 6 nM
IC50 [20]: 16000 nM
inhibition [21]: inactive
inhibition [22]: inactive
inhibition [23]: inactive
Vd [24]: 0.9 L/kg
IC50 [25]: 2800 nM
IC50 [4]: 87 to 540 nM
Papp A→B [26]: 6 ×10⁻⁶ cm/s
AUC [27]: 36.2 µM·h
inhibition [28]: inactive
inhibition [29]: inactive
Vd [30]: 0.8 L/kg
Cmax [31]: 18 µM
IC50 [2]: 8400 nM
inhibition in vivo at 50 mg/kg [32]: 86%
inhibition [33]: inactive
CL/F [34]: 19 mL/min/kg
inhibition [35]: inactive
inhibition [36]: inactive

Further compounds by falling IC50 [1], results first:

IC50 [1]: 100 nM
IC50 [3]: 8 nM
IC50 [4]: 76 nM
IC50 [2]: 550 nM
Compound: Cc1nc(N)c(-c2cnn(C3CCN(C)CC3)n2)nc1-c1cnc2ccccn12

IC50 [1]: 58 nM
Compound: CN(C)CC(=O)N1CCC(n2cc(-c3cnc(N)c(-n4nnc5ccccc54)n3)cn2)CC1

IC50 [1]: 49 nM
IC50 [3]: 5 nM
IC50 [4]: 32 nM
IC50 [2]: 200 nM
Compound: Cc1nc(N)c(-c2nc(C3CCN(C)CC3)nn2C)nc1-c1cnc2ccccn12

clearance [10]: 27 mL/min/kg
logD [11]: 2.3
IC50 [1]: 24 nM
bioavailability [13]: 9%
solubility [37]: 7 µM (≈ 2.54 µg/mL)
pKa [18]: 2.3
IC50 [3]: < 10 nM
Vd [24]: 0.8 L/kg
IC50 [4]: 24 to 180 nM
Papp A→B [26]: 36 ×10⁻⁶ cm/s
IC50 [2]: 1500 nM
Compound: CNC(=O)c1nc(-c2nc(-c3cnn4ccccc34)c(C)nc2N)n(C)n1

IC50 [1]: 22 nM
IC50 [2]: 16000 nM
Compound: CO[C@H]1CC[C@H](NC(=O)c2nc(-c3nc(-c4cnc5ccccn45)c(C)nc3N)n(C)n2)CC1
